Experimental findings from article PMC11054132, “Neuroprotective Effects of Chemical Constituents of Leaves of Euonymus hamiltonianus Wall” (Plants, 2024) are described below.

By IC50 is commonly meant the concentration that gives 50% inhibition.

Each structure is given as a SMILES string. Entries after “also recorded” stand apart in the source; their conditions may differ.

The test system of one series is COX-2. Description: Western blot of LPS-induced COX-2 expression in BV-2 microglial cells. In kind it is cell-based, mouse. As to conditions: LPS-stimulated BV-2 microglial cells, various concentrations (1.0, 2.0, 4.0 µM). On the procedure:
(§1) The anti-inflammatory effects of the fourteen compounds (1–14) isolated from E. hamiltonianus were evaluated in activated BV-2 microglial cells by the production of NO and proinflammatory cytokines. BV-2 microglial cells were stimulated with 0.1 µg/mL LPS for 12 h in the presence of the compounds at various concentrations, and the levels of NO in the culture supernatants were measured using Griess reactions. […] The compounds were continuously assessed to determine whether they suppressed the expression of iNOS and COX-2 in LPS-stimulated BV-2 microglial cells. The cells were stimulated with LPS in the presence of these compounds at various concentrations, and the expression levels of iNOS and COX-2 were determined by Western blotting. […] Thus, compound 3 may be considered a potential anti-inflammatory agent.
The total protein samples (10 μg) were loaded in sodium dodecyl sulfate polyacrylamide gel electrophoresis (SDS–PAGE) gels with 10% acrylamide/bis and transferred to polyvinylidene difluoride membranes (Millipore, Burlington, MA, USA). Then, the membranes were blocked with 5% silky milk dissolved in TBST (Tris Buffered saline Tween) for 1 h under room temperature and incubated overnight at 4 °C with specific primary antibodies (1:1000). […] The band densities were determined as the intensities of protein by TotalLab TL120 software v2009 (TotalLab, Newcastle, UK).
For orientation: A western blot detects proteins with antibodies after separation by electrophoresis.

Series [1] in a line: Cytotoxicity (MTT assay) in BV-2 microglial cells. In kind it is cell-based. As to conditions: mouse; BV-2 microglial cells, MTT assay; read-out: IC50 Value (µM) Cytotoxicity.
The subject of series [2] is NO production in LPS-activated BV-2 microglial cells. Description: NO production (Griess reaction) in LPS-stimulated BV-2 microglial cells. In kind it is cell-based, mouse. The conditions noted are these: for Inhibitory effect on NO production (in words): LPS-stimulated BV-2 microglial cells; for IC50: pretreated 1 h, 100 ng/mL LPS (footnote 24 h; text 12 h), means ± SDs (n = 3). On the procedure: as §1, with “BV-2 microglial cells were stimulated with 0.1 µg/mL LPS for 12 h in the presence of the compounds at various concentrations, and the levels of NO in the culture supernatants were measured using Griess reactions.” left out
For the Aβ-Hela-APPsw model, Hela cells were stably transfected with an APP carrying the Swedish mutation (APPsw) using BioT (Bioland Scientific LLC, Paramount, CA, USA) according to the manufacturer’s instructions, which was provided by Prof. Tae-Wan Kim (Department of Pathology, Columbia University of Medical Center, New York, NY 10032, USA). APPsw-transfected HeLa cells were grown in DMEM supplemented with 10% fetal bovine serum (FBS; Thermo Fisher Scientific, Lafayette, CA, USA), 1% penicillin/streptomycin (Thermo Fisher Scientific, Lafayette, CA, USA), 260 μg/mL Zeocin, and 400 μg/mL G418. The cells were maintained at 37 °C under a humidified atmosphere of 5% CO2. The stock sample solution was dissolved in DMSO and kept at −20 °C and diluted to the final concentration in fresh medium before each experiment. […] The EZ-Cytox kit (DAEILLAB, Cheongwon, Republic of Korea) was applied to detect the cell viability, following the manufacturer’s instructions, and measurements were taken by a microplate reader (BIO-TEK® Dower-Wave; BioTek, Winooski, VT, USA) under absorbance at 450 nm. The results were presented as the percentage of MTT reduction, compared with the control group as 100%. For the LPS-induced microglia model, the BV-2 mouse microglia cell line was provided by Prof. Lee Sung Jung’s research team in the College of Medicine, Seoul National University, and was cultured in DMEM-F12 with 5% FBS and 1% penicillin/streptomycin at 37 °C under a humidified atmosphere containing 5% CO2. And the cell viability assay was performed using the Aβ-Hela-APPsw model.
[…] The media were collected and centrifuged at 13,000 rpm for the removal of dead cells. The supernatants were collected and mixed with an equal volume (50 μL) of Griess reagents (1% sulfanilamide and N-(1-naphthyl) ethylenediamine dihydrochloride in 2.5% H3PO4) for 5 min at room temperature, and the Nitric Oxide concentration was measured at 540 nm using a microplate reader and compared with the sodium nitrite standard curve.

The next series relates to iNOS. Kind of series: Western blot of LPS-induced iNOS expression in BV-2 microglial cells. In kind it is cell-based, mouse. The conditions noted are these: LPS-stimulated BV-2 microglial cells, various concentrations (1.0, 2.0, 4.0 µM). On the procedure:
as §1
The total protein samples (10 μg) were loaded in sodium dodecyl sulfate polyacrylamide gel electrophoresis (SDS–PAGE) gels with 10% acrylamide/bis and transferred to polyvinylidene difluoride membranes (Millipore, Burlington, MA, USA). Then, the membranes were blocked with 5% silky milk dissolved in TBST (Tris Buffered saline Tween) for 1 h under room temperature and incubated overnight at 4 °C with specific primary antibodies (1:1000). After being washed with TBST, the membranes were incubated with secondary HRP-conjugated IgG (1:2000) at room temperature for 1 h and visualized using enhanced chemiluminescence (ECL) reagents (Thermo Fisher Scientific, Lafayette, CA, USA). Densitometry analysis of the bands was performed with the fusion solo system (Vilber, Paris, France). The band densities were determined as the intensities of protein by TotalLab TL120 software v2009 (TotalLab, Newcastle, UK).

The nature of series [3]: Storage stability of isolated compound by LC-MS. It is filed as physicochemical. As to conditions: stored 27 days (compound 2) or a significant length of time (compound 1), dried powder and DMSO solution. On the procedure:
In this study, qualitative profile analysis was performed on the 30% EtOH crude extract of the leaves of E. hamiltonianus using HPLC. The isolated phytochemicals, 1–14, were used as standards and compared to the crude extract profile represented by a high-performance liquid chromatogram (Figure 3). […] With comparative UV area normalization, compound 2 was confirmed as a pure compound initially when isolated (Figure S3.8). […] For reconfirmation, LC-MS analyses of both the dried powdered form of the compound when isolated and the compound in DMSO solution were performed (Figure S3.9), both sets of results showing signs of degradation. Compound 2 was degraded into three separate peaks, and the original compound 2 indicated by m/z 759.2 was verified by LC-MS analysis, and the peaks of 2a and 2b were indicated by m/z 465.1 and 627, respectively. […] Due to the close resemblance of compound 2 to compound 1, it was investigated in the same manner after a significant length of time.

Series [4] concerns Aβ42 production in APPsw-transfected HeLa cells. Kind of series: Aβ42 production (ELISA kit) in APPsw-transfected HeLa cells. In kind it is cell-based. As to conditions: Homo sapiens, HeLa, 8 h, APPsw-transfected HeLa cells; means ± SDs (n = 3). The procedure:
APPsw-transfected HeLa cells were cultured with the isolated compounds or DMSO in Dulbecco’s modified Eagle medium (DMEM, Welgene, Gyeongsan-si, Republic of Korea) for 8 h, and then the cell culture supernatants were collected for the following analyses. For the detection of Aβ secretion, kits for Aβ42 (KHB3442) and Aβ40 (KHB3482) were purchased from the Invitrogen Company and used according to the supplier’s instructions.
For the Aβ-Hela-APPsw model, Hela cells were stably transfected with an APP carrying the Swedish mutation (APPsw) using BioT (Bioland Scientific LLC, Paramount, CA, USA) according to the manufacturer’s instructions, which was provided by Prof. Tae-Wan Kim (Department of Pathology, Columbia University of Medical Center, New York, NY 10032, USA). APPsw-transfected HeLa cells were grown in DMEM supplemented with 10% fetal bovine serum (FBS; Thermo Fisher Scientific, Lafayette, CA, USA), 1% penicillin/streptomycin (Thermo Fisher Scientific, Lafayette, CA, USA), 260 μg/mL Zeocin, and 400 μg/mL G418. The cells were maintained at 37 °C under a humidified atmosphere of 5% CO2. The stock sample solution was dissolved in DMSO and kept at −20 °C and diluted to the final concentration in fresh medium before each experiment. For the cell viability assay, Hela cells were cultured in 96-well plates for 24 h and then various concentrations of comp 27 (0–10 μM) were treated for 12 h. The EZ-Cytox kit (DAEILLAB, Cheongwon, Republic of Korea) was applied to detect the cell viability, following the manufacturer’s instructions, and measurements were taken by a microplate reader (BIO-TEK® Dower-Wave; BioTek, Winooski, VT, USA) under absorbance at 450 nm. The results were presented as the percentage of MTT reduction, compared with the control group as 100%. For the LPS-induced microglia model, the BV-2 mouse microglia cell line was provided by Prof. Lee Sung Jung’s research team in the College of Medicine, Seoul National University, and was cultured in DMEM-F12 with 5% FBS and 1% penicillin/streptomycin at 37 °C under a humidified atmosphere containing 5% CO2. And the cell viability assay was performed using the Aβ-Hela-APPsw model.

The mark [5] stands for this setting: Mus musculus, BV-2, BV-2 microglial cells.

On to `O=c1c(O[C@@H]2O[C@H](CO)[C@@H](O)[C@H](O)[C@H]2O)c(-c2ccc(O)c(O)c2)oc2cc(O[C@@H]3O[C@H](CO)[C@@H](O)[C@H](O)[C@H]3O)cc(O)c12` [Compound 4, quercetin-3,7-di-O-β-D-glucopyranoside], for which the “LPS-induced COX-2 protein expression (in words)” value with COX-2 is “suppressed”. Besides, the IC50 at 12 h in series [1] was greater than 100 µM. Further, the “Inhibitory effect on NO production (in words)” value in series [2] is listed as “effectively downregulated; also recorded: good inhibitory effects”. Also, the IC50 in series [2] (setting [5]) stood at 14.4 ± 8.68 µM. The “LPS-induced iNOS protein expression (in words)” value in the series on iNOS was “suppressed; also recorded: effectively downregulated”.

For the molecule `O=c1c(O[C@@H]2O[C@H](CO)[C@H](O)[C@H](O)[C@H]2O)c(-c2ccc(O)c(O)c2)oc2cc(O)cc(O)c12` [Compound 3, quercetin-3-O-β-D-galactopyranoside], the “LPS-induced COX-2 protein expression (in words)” value in the series on COX-2 is given as “suppressed; also recorded: most potent inhibitory activity”. In series [1], the IC50 at 12 h was greater than 100 µM. Also, the IC50 is 16.3 ± 2.94 µM in series [2] (BV-2 microglial cells) and 14.4 µM in series [2] (setting [5]). Also, the “Inhibitory effect on NO production (in words)” value in series [2] is “effectively downregulated; also recorded: good inhibitory effects”. The “LPS-induced iNOS protein expression (in words)” value in the series with iNOS is reported as “suppressed; also recorded: most potent inhibitory activity; also recorded: effectively downregulated”.

Consider `O=c1c(O[C@@H]2O[C@H](CO)[C@@H](O)[C@H](O)[C@H]2O[C@@H]2OC[C@@H](O)[C@H](O)[C@H]2O)c(-c2ccc(O)c(O)c2)oc2cc(O[C@@H]3O[C@H](CO)[C@@H](O)[C@H](O)[C@H]3O)cc(O)c12` [Compound 2, quercetin-3-O-(2″-O-(β-D-xylopyranosyl)-β-D-glucopyranoside)-7-O-β-D-glucopyranoside], for which the “Degradation on storage (in words)” value in series [3] is given as “showed signs of degradation”. For the same molecule, the IC50 at 12 h in series [1] was greater than 100 µM. Moreover, the IC50 in series [2] (setting [5]) and in series [4] was greater than 100 µM throughout.
